Experimental data as given in ChEMBL document CHEMBL2176970, “Discovery and optimization of a series of 3-(3-phenyl-3H-imidazo[4,5-b]pyridin-2-yl)pyridin-2-amines: orally bioavailable, selective, and potent ATP-independent Akt inhibitors” (J Med Chem, 2012).

What was measured:
[1] = biological target: Serine/threonine-protein kinase PAK 3 (Homo sapiens) (UniProt O75914); assay: Inhibition of PAK3 using fluorescent labelled substrate at 5 uM by caliper method
[2] = biological target: T1, RAC-alpha serine/threonine-protein kinase (Homo sapiens, UniProt P31749); assay: Inhibition of Akt1 in human AN3CA cells assessed as phosphorylation of Akt at S473 after 2 hrs by Western Blot analysis; type: cell-based, AN3-CA
[3] = biological target: T1, RAC-alpha serine/threonine-protein kinase; assay: Inhibition of Akt1 in human A2780 cells assessed as phosphorylation PRAS40 at T246 after 2 hrs by Western Blot analysis; type: cell-based
[4] = test system: AN3-CA; assay: Antiproliferative activity against human AN3CA cells after 72 hrs by MTS assay; type: functional, cell-based
[5] = biological target: RAC-beta serine/threonine-protein kinase (Homo sapiens, UniProt P31751); assay: Binding affinity to Akt2 (1 to 481) expressed in Sf9 cells assessed as change in melting temperature at 15 uM
[6] = biological target: T1, RAC-alpha serine/threonine-protein kinase; assay: Inhibition of Akt1 (1 to 480) expressed in Sf9 cells using biotin-GRPRTSSFAEG as substrate after 20 mins by Alpha-screen assay
[7] = biological target: T2, Cytochrome P450 1A2 (Homo sapiens, UniProt P05177); assay: Inhibition of CYP1A2 in human liver microsomes using phenacetin as substrate after 10 mins; type: ADME, Microsome
T2 sequence (P05177 whole entry): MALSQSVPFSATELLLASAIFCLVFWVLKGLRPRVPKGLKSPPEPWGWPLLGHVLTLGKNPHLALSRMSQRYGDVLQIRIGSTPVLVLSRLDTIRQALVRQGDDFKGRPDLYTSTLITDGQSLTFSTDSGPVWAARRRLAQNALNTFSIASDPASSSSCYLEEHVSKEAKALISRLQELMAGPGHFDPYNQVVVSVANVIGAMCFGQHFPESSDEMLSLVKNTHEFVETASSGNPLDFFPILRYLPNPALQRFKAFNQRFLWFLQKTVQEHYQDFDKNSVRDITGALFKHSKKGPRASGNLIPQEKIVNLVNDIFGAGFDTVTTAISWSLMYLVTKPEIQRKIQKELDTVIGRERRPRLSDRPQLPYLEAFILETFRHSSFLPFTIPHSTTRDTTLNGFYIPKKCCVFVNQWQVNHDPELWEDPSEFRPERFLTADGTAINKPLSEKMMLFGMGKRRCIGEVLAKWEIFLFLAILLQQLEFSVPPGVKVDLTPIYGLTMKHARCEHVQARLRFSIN

[8] = biological target: T3, Cytochrome P450 2C8 (Homo sapiens, UniProt P10632); assay: Inhibition of CYP2C8 in human liver microsomes using paclitaxel as substrate after 10 mins; type: ADME, Microsome
T3 sequence (P10632 whole entry): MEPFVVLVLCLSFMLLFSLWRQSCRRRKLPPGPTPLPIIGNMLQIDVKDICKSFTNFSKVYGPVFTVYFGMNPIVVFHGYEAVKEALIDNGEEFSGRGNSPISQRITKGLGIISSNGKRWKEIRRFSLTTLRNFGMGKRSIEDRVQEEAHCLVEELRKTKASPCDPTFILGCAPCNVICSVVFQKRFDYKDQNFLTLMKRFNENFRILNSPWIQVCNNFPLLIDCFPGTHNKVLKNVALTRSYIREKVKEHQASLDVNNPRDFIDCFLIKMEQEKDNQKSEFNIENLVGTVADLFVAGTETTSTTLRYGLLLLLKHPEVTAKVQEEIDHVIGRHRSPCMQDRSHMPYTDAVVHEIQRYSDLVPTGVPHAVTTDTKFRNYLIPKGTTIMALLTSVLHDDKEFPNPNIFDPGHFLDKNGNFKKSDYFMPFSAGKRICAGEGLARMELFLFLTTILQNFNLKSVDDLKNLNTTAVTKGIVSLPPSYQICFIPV

[9] = biological target: Cyclin-dependent kinase 2/cyclin E (Homo sapiens) (UniProt P24864+P24941+O96020); assay: Inhibition of CDK2/cyclinE using fluorescent labelled substrate at 5 uM by caliper method; type: protein-complex assay
[10] = biological target: Serine/threonine-protein kinase pim-1 (Homo sapiens) (UniProt P11309); assay: Inhibition of PIM1 using fluorescent labelled substrate at 5 uM by caliper method
[11] = biological target: Calcium/calmodulin-dependent protein kinase type II subunit delta (Homo sapiens) (UniProt Q13557); assay: Inhibition of CAMK2delta using fluorescent labelled substrate at 5 uM by caliper method
[12] = biological target: Serine/threonine-protein kinase Sgk3 (Homo sapiens) (UniProt Q96BR1); assay: Inhibition of SGK3 using fluorescent labelled substrate at 5 uM by caliper method
[13] = biological target: Ribosomal protein S6 kinase alpha-1 (Homo sapiens) (UniProt Q15418); assay: Inhibition of RSK1 using fluorescent labelled substrate at 5 uM by caliper method
[14] = biological target: Rho-associated protein kinase 1 (Homo sapiens) (UniProt Q13464); assay: Inhibition of ROCK1 using fluorescent labelled substrate at 5 uM by caliper method
[15] = biological target: Protein kinase C theta type (Homo sapiens) (UniProt Q04759); assay: Inhibition of PKCtheta using fluorescent labelled substrate at 5 uM by caliper method
[16] = biological target: Protein kinase C gamma type (Homo sapiens) (UniProt P05129); assay: Inhibition of PKCgamma using fluorescent labelled substrate at 5 uM by caliper method
[17] = biological target: Protein kinase C beta type (Homo sapiens) (UniProt P05771); assay: Inhibition of PKCbeta1 using fluorescent labelled substrate at 5 uM by caliper method
[18] = biological target: Protein kinase C alpha type (Homo sapiens) (UniProt P17252); assay: Inhibition of PKCalpha using fluorescent labelled substrate at 5 uM by caliper method
[19] = Inhibition of PKA using fluorescent labelled substrate at 5 uM by caliper method
[20] = biological target: T1, RAC-alpha serine/threonine-protein kinase; assay: Inhibition of Akt1 (1 to 480) expressed in Sf9 cells by indirect affinity mass spectrometry assay

T1 sequence (P31749 whole entry): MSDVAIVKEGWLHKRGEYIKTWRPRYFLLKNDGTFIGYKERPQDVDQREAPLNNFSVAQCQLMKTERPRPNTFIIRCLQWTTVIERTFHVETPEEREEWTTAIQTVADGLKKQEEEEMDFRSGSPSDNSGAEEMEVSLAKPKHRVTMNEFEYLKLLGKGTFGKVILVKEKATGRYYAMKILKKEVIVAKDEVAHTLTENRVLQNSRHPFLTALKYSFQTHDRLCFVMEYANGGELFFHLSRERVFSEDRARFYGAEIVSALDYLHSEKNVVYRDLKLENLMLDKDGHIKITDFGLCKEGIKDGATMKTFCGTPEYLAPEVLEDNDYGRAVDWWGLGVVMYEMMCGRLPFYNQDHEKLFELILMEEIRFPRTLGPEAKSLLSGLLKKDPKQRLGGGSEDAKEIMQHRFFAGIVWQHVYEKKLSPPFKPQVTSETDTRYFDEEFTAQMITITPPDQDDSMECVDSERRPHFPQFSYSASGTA
Sequence of Serine/threonine-protein kinase Sgk3 (Homo sapiens) (Q96BR1 whole entry): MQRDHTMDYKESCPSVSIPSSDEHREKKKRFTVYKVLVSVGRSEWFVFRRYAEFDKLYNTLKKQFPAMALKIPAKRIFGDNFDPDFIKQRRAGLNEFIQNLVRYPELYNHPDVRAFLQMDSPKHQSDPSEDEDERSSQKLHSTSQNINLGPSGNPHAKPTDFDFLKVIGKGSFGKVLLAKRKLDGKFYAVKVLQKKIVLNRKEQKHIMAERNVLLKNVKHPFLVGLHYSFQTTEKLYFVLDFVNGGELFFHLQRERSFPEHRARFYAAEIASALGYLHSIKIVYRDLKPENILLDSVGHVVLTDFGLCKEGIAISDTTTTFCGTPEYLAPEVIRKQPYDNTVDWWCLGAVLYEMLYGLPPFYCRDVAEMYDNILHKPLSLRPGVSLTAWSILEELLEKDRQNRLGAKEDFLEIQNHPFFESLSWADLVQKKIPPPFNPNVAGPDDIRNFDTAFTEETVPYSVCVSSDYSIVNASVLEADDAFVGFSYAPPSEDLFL
Sequence of Calcium/calmodulin-dependent protein kinase type II subunit delta (Homo sapiens) (Q13557 whole entry): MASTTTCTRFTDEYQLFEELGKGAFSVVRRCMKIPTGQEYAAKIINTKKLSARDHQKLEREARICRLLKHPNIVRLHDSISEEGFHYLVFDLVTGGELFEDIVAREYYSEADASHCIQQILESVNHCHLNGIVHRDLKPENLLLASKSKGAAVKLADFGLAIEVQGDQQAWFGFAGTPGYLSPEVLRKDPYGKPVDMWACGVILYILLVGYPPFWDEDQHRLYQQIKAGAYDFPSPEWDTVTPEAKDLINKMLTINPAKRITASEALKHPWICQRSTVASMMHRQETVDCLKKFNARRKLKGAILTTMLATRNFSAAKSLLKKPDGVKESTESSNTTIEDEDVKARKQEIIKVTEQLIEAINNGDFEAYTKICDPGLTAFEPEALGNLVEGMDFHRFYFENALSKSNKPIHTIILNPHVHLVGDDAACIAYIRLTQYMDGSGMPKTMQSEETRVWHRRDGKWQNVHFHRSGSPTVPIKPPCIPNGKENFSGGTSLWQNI
Sequence of Serine/threonine-protein kinase pim-1 (Homo sapiens) (P11309 whole entry, looked up): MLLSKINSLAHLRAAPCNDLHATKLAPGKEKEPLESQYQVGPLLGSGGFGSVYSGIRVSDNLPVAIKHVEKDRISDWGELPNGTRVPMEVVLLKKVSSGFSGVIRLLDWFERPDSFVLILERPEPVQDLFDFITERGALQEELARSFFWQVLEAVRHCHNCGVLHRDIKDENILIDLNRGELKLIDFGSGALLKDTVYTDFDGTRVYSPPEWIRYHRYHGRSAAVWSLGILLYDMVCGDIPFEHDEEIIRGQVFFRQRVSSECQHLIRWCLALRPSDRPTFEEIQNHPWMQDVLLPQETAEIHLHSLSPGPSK
Sequence of Serine/threonine-protein kinase PAK 3 (Homo sapiens) (O75914 whole entry, looked up): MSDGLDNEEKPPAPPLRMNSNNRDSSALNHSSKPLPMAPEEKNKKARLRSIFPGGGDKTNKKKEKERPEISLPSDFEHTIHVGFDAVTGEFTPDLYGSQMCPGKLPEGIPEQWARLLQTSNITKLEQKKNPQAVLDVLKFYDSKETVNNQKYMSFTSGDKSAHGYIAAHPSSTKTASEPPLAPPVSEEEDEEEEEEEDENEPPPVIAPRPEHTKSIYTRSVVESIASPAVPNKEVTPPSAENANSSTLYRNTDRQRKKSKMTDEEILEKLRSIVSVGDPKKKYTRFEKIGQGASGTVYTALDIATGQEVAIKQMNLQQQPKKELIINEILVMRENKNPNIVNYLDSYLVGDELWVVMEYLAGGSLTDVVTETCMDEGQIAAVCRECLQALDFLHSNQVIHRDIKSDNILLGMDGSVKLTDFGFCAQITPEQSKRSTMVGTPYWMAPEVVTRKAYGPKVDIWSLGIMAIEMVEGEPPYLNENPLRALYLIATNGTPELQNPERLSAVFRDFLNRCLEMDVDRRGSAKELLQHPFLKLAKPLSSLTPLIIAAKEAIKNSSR
Sequence of RAC-beta serine/threonine-protein kinase (P31751 whole entry): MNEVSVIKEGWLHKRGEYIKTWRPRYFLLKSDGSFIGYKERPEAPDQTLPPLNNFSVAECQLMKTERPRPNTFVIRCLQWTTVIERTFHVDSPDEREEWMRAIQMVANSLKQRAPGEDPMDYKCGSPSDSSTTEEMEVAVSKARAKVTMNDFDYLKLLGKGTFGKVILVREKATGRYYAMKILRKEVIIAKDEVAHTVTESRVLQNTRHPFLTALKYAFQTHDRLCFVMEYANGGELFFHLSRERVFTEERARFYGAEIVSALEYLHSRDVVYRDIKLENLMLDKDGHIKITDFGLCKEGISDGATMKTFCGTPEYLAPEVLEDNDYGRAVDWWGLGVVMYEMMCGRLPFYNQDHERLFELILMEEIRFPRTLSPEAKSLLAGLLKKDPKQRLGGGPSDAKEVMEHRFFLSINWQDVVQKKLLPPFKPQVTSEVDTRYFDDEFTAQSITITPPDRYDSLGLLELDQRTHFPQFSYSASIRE
Sequence of Rho-associated protein kinase 1 (Homo sapiens) (Q13464 2-1354 limits assumed): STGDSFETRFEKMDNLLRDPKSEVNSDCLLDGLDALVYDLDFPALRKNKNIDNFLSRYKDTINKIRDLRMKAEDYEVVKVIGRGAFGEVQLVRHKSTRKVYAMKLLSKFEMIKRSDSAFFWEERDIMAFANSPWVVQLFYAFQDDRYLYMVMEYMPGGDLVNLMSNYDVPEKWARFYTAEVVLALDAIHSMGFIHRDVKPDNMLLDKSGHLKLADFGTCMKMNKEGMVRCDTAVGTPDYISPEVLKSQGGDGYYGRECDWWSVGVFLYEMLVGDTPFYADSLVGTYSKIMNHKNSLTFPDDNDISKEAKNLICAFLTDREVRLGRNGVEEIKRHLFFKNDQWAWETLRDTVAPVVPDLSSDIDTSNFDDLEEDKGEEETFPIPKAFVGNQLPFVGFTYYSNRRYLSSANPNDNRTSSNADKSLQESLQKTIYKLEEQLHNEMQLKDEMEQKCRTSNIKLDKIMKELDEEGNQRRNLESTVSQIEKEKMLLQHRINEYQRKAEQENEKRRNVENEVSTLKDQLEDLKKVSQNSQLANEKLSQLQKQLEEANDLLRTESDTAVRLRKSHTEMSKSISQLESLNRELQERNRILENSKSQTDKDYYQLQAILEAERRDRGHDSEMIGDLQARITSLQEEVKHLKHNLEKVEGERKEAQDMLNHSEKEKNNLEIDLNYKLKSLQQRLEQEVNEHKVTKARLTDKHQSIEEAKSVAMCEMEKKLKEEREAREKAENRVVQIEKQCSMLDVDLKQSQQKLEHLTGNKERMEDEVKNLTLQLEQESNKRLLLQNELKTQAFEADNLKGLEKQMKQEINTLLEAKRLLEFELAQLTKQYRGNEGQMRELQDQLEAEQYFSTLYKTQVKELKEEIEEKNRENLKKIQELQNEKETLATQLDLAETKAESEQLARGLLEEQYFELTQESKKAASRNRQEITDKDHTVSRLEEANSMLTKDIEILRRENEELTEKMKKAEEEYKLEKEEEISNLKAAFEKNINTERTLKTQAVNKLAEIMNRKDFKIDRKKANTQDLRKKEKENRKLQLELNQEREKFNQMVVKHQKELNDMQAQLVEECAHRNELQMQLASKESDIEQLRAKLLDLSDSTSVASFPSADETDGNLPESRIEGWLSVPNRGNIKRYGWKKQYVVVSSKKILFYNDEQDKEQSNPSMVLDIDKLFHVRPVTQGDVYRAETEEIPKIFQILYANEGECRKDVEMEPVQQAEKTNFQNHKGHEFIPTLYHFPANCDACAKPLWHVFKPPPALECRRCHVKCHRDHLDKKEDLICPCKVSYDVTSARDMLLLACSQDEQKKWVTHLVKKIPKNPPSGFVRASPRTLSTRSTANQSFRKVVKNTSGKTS

Row | Structure (SMILES) | inhibition [1] [%] | IC50 [2] [µM] | IC50 [3] [µM] | IC50 [4] [µM] | ΔTm [5] [°C] | IC50 [6] [µM] | IC50 [7] [µM] | IC50 [8] [µM] | inhibition [9] [%] | inhibition [10] [%] | inhibition [11] [%] | inhibition [12] [%] | inhibition [13] [%] | inhibition [14] [%] | inhibition [15] [%] | inhibition [16] [%] | inhibition [17] [%] | inhibition [18] [%] | inhibition [19] [%] | IC50 [20] [µM]
1 | Nc1ncccc1-c1nc2cccnc2n1-c1ccc(CNC(=O)c2ccccc2)cc1 | > 25 | 5.6 | > 10 | > 100 | 1.3 | 0.023 | > 10 | > 10 | > 25 | > 25 | > 25 | > 25 | > 25 | > 25 | > 25 | > 25 | > 25 | > 25 | > 25 | 
2 | Nc1ncccc1-c1nc2cccnc2n1-c1ccc(CC(=O)Nc2ccccc2)cc1 | > 25 | 2.5 | > 10 | 70 | 1.2 |  | > 10 | > 10 | > 25 | > 25 | > 25 | > 25 | > 25 | > 25 | > 25 | > 25 | > 25 | > 25 | > 25 | 14
